Reference: patent publication US8735382B2, “Infusion and injection solution of levodopa” (Dizlin Medical Design AB, priority 2004, dated 2014)
Entries after “also recorded” stand apart in the source; their conditions may differ.

Assays:
PD patients = assay: Continuous intravenous infusion of Levodopa in PD patients; type: in vivo, human
Protocol: Continuous infusion of Levodopa has been given to PD patients during 12 hours a day for 10 days. The daily dosage of Levodopa was 608 mg and the infusion rate was 51 mg/h. Fifty % of the patients received traditional oral administration of Carbidopa and 50% received Benserazide.

patient = assay: Subcutaneous continuous infusion of Levodopa in a patient; type: in vivo, human
Source text: Tests have been made with subcutaneous infusion. […] The patient was further treated intravenously another day, with continuous Levodopa infusion.

[1] = dissolved in HCl and diluted with glucose, Levodopa only active ingredient; cited from earlier work
[2] = Solubility of Levodopa in HCl and after raising the pH with glucose; type: physicochemical
Protocol: Levodopa can be dissolved in HCl up to 100 mg/mL without any precipitation. To raise the pH with glucose in a way according to the invention and still get a stabile solution, it is possible to obtain 10 mg/mL Levodopa, and with 2 mg/mL Carbidopa addition 20 mg/mL Levodopa. A precipitate appears at 30 mg/mL Levodopa in the presence of 3 mg/mL Carbidopa. The steps of producing the solutions of the invention are made rather quickly up to the addition of glucose.

[3] = cited from earlier work

Levodopa concentration dissolved without any precipitation ([2]; in HCl): up to 100 mg/mL | Levodopa concentration at which a precipitate appears ([2]; in the presence of 3 mg/mL Carbidopa): 30 mg/mL | Levodopa concentration obtainable as stabile solution ([2]; pH raised with glucose according to the invention, no Carbidopa): 10 mg/mL | Levodopa concentration obtainable as stabile solution ([2]; pH raised with glucose, with 2 mg/mL Carbidopa addition): 20 mg/mL
Compound: N[C@@H](Cc1ccc(O)c(O)c1)C(=O)O [Levodopa, 3-(3,4-dihydroxiphenyl)-L-alanine]
follow-up time at which the long-term effect was stable (PD patients; after the concluded infusion): 6-10 months | clinical fluctuations (dyskinesia and bradykinesia) (PD patients; intravenous, 12 hours a day for 10 days, 608 mg daily, seventeen patients, preliminary): both bradykinesia and above all dyskinesia decline; also recorded: pronounced decrease in clinical fluctuations | duration of the long-lasting effect (PD patients; intravenous, 12 hours for 10 days): at least 5 months | dyskinesia during infusion treatment, single case (PD patients; person, PD for 20 years): dyskinesia disappeared almost completely | therapeutic interval from analysis of Levodopa in plasma (PD patients; plasma, not uniform in the material): widening of the therapeutic interval | required oral Levodopa dosage, post-treatment (mean) (PD patients; seventeen patients, after intravenous infusion treatment): 773 mg/day | required oral Levodopa dosage, pre-treatment (mean) (PD patients; seventeen patients, before intravenous infusion treatment): 1003 mg/day | Levodopa blood concentrations during the day (patient; same patient, one day of continuous intravenous infusion): some fluctuations of the Levodopa blood concentrations occurred | clinical effect (patient; subcutaneous infusion): positive clinical effect; also recorded: good clinical effect | distribution of Levodopa to the blood (patient; subcutaneous infusion): fast distribution of Levodopa to the blood with measurable concentrations | dose dependence of response (patient; subcutaneous infusions, one patient): responded in a dose dependant manner | Levodopa concentration above which Levodopa precipitates [1]: > 5 mg/mL | delay in concentration levels between plasma and CNS ([3]; in vivo): about 90 minutes | fraction of the total dose that enters the blood circulation ([3]; oral administration): approximately 10%
